PubChem BioAssay AID1919010 (Molecular Pharmacology Branch, DTP, NCI, 2023)
“And” between values parts separate entries of the source, which are not always exact repeats. Equal values may be shown once.

Tested on: Hs578T complex spheroid growth, percent test/control
Experiment: Anticancer human tumor Hs578T cell line growth inhibition [AhR];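 further: luminescent viability signal as a proxy for spheroid growth; spheroids exposed to agents for one week after three days of growth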
Settings: for viability, T/C: stronger effect = lower value
Text: Multicellular complex tumor spheroid response to aryl hydrocarbon receptor antagonists in combination with a variety of drugs and investigational agents in selected tumor cell lines
The current study was undertaken to assess response to aryl hydrocarbon receptor antagonists in combination with standard-of-care drugs and investigational agents in solid tumor complex spheroid models. Complex spheroids include a stromal component modeled by human endothelial cells (HUVEC) and fibroblasts modeled by human mesenchymal stem cells (MSCs). The concentration ranges selected for each drug and investigational agent were based upon clinically achievable concentrations if the clinical Cmax of the agent was known.
Compounds. The drugs and investigational agents: BAY 2416964 (NSC825713), GNF351 (NSC835774), CH-223191 (NSC835775), CPI-455 (NSC825282), aza-TdCyd (NSC777586), decitabine (NSC127716), belinostat (NSC758774), entinostat (NSC756642), pevonedistat (NSC761192), tazemetostat (NSC777109), talazoparib (NSC765396), olaparib (NSC753686), selinexor (NSC780203), nedisertib (M3814, NSC802822), bortezomib (NSC756655), venetoclax (NSC766270), doxorubicin (NSC123127), elimusertib (BAY189344, NSC800525), ceralasertib (AZD6738, NSC777638), TAK-243 (NSC785004), alisertib (NSC759677), etoposide (NSC141540), topotecan (NSC609699), eribulin (NSC707389), gemcitabine (NSC613327), carboplatin (NSC241240), cisplatin (NSC119875), and SN-38 (NSC673596) were obtained from the National Cancer Institute (NCI) Developmental Therapeutics Program Chemical Repository (32). The FDA-approved anticancer drug set is available from the Developmental Therapeutics Program at https://dtp.cancer.gov/organization/dscb/obtaining/available plates.htm. […] The stock solutions were prepared in dimethyl sulfoxide (DMSO, Sigma-Aldrich, St. Louis, MO, cat. D2650), except for the platinum compounds which were prepared in saline (Quality Biological, Gaithersburg, MD, cat. 114-055-101), at 800-fold the tested concentration and stored at -70 degrees C prior to their use. All drugs and investigational agents were tested over a range starting from a high concentration at or near the clinical Cmax and decreasing in half-log increments. If the clinical Cmax for an agent had not been determined, the highest concentration tested was 10 microM (Table 1).
Cell Culture. All cells were maintained in an incubator at 37 degrees C and 5% CO2 with 95% humidity. The PDC lines were cultured according to standard operating procedures established by the NCI PDMR (https://pdmr.cancer.gov). Briefly, all PDCs were thawed and cultured in Matrigel-coated flasks prepared with a working solution of 1X Ham's F-12 nutrient mix, without supplementation (Invitrogen, Waltham, MA, cat. 11765054), 100 U/mL penicillin-streptomycin (Invitrogen, cat. 15140122), and 2.5% Matrigel (Corning Inc., Corning, NY, cat. 354248) for the first three passages. All PDCs were cultured in complete DMEM/F-12 media containing advanced DMEM/F-12 (Invitrogen, cat. 12634028), 4.9% defined fetal bovine serum, heat inactivated (HyClone Laboratories Inc., Logan, UT, cat. SH30070.03HI), 389 ng/mL hydrocortisone (Sigma-Aldrich, cat. H4001), 9.7 ng/mL human EGF recombinant protein (Invitrogen, cat. PHG0313), 23.4 microg/mL adenine (Sigma-Aldrich, cat. A2786), 97.3 U/mL penicillin-streptomycin (Invitrogen, cat. 15140122), 1.9 mM L-glutamine (Invitrogen, cat. 25030081), and 9.7 microM Y-27632 dihydrochloride (Tocris Bioscience, Bristol, United Kingdom, cat. 1254). The PDCs were cultured in complete DMEM/F12 media without 10 microM Y-27632 dihydrochloride for at least two passages prior to the screen. The established cell lines NCI-H1341 and […] were cultured in DMEM/F-12, HEPES (Invitrogen, cat. 11330032), 5% defined fetal bovine serum (HyClone Laboratories Inc., cat. SH30070.03), ITS premix universal culture supplement [insulin (5 microg/mL), transferrin (5 microg/mL), and selenious acid (5 ng/mL)] […]

**Q.** Which results are given for `O=C(C=Cn1cnc(-c2cc(C(F)(F)F)cc(C(F)(F)F)c2)n1)NNc1cnccn1`?
**A.** viability, T/C (compound 0.00949 µM): 91.2% and 92.5% and 96.9%; viability, T/C (compound 0.03 µM): 95.9% and 92.7% and 88.6%; viability, T/C (compound 0.0949 µM): 90.4% and 70.7% and 77.7%; viability, T/C (compound 0.3 µM): 54.4% and 32.3% and 45.1%; viability, T/C (compound 0.949 µM): 18.8% and 10% and 17.4%; viability, T/C (compound 3 µM): 15.7% and 10.8% and 15.9%; IC50 (curve of compound): 0.346 µM and 0.176 µM and 0.244 µM

**Q.** Which results are given for `COc1cc(Nc2ncc3c(n2)-c2ccc(Cl)cc2C(c2c(F)cccc2OC)=NC3)ccc1C(=O)O` + Cc1ccccc1N=Nc1ccc(NC(=O)c2ccnn2C)c(C)c1?
**A.** IC50 (curve of first compound, second compound 0.1 µM): 6.12 µM; IC50 (curve of first compound, second compound 0.316 µM): 6.76 µM; IC50 (curve of first compound, second compound 1 µM): 7.91 µM; IC50 (curve of first compound, second compound 3.16 µM): > 10 µM; IC50 (curve of first compound, second compound 10 µM): 5.67 µM; viability, T/C (second compound 0.1 µM, first compound 0.0316 µM): 88.2%; viability, T/C (second compound 0.1 µM, first compound 0.1 µM): 91.4%; viability, T/C (second compound 0.1 µM, first compound 0.316 µM): 78%; viability, T/C (second compound 0.1 µM, first compound 1 µM): 77.5%; viability, T/C (second compound 0.1 µM, first compound 3.16 µM): 71.9%; viability, T/C (second compound 0.1 µM, first compound 10 µM): 35.4%; viability, T/C (second compound 0.316 µM, first compound 0.0316 µM): 85%; viability, T/C (second compound 0.316 µM, first compound 0.1 µM): 81.7%; viability, T/C (second compound 0.316 µM, first compound 0.316 µM): 91.8%; viability, T/C (second compound 0.316 µM, first compound 1 µM): 79.4%; viability, T/C (second compound 0.316 µM, first compound 3.16 µM): 67.9%; viability, T/C (second compound 0.316 µM, first compound 10 µM): 40.9%; viability, T/C (second compound 1 µM, first compound 0.0316 µM): 86%; viability, T/C (second compound 1 µM, first compound 0.1 µM): 75%; viability, T/C (second compound 1 µM, first compound 0.316 µM): 92.9%; viability, T/C (second compound 1 µM, first compound 1 µM): 82.3%; viability, T/C (second compound 1 µM, first compound 3.16 µM): 73.2%; viability, T/C (second compound 1 µM, first compound 10 µM): 44%; viability, T/C (second compound 3.16 µM, first compound 0.0316 µM): 71.5%; viability, T/C (second compound 3.16 µM, first compound 0.1 µM): 83.1%; viability, T/C (second compound 3.16 µM, first compound 0.316 µM): 85.1%; viability, T/C (second compound 3.16 µM, first compound 1 µM): 73.8%; viability, T/C (second compound 3.16 µM, first compound 3.16 µM): 66.7%; viability, T/C (second compound 3.16 µM, first compound 10 µM): 50.1%; viability, T/C (second compound 10 µM, first compound 0.0316 µM): 68.4%; viability, T/C (second compound 10 µM, first compound 0.1 µM): 64.2%; viability, T/C (second compound 10 µM, first compound 0.316 µM): 68.3%; viability, T/C (second compound 10 µM, first compound 1 µM): 63.9%; viability, T/C (second compound 10 µM, first compound 3.16 µM): 62.5%; viability, T/C (second compound 10 µM, first compound 10 µM): 38.2%
